Like-named read-outs stand apart in the source and are kept apart here.
Columns and labels:
PC-3 cells = assay: Growth inhibition of prostate carcinoma cells (MTS); assay type: cell-based, human
MDA-MB231 cells = assay: Growth inhibition of breast carcinoma cells (MTS); assay type: cell-based, human
2008 cells = assay: Growth inhibition of ovarian carcinoma cells (MTS); assay type: cell-based, human
[1] = test system: tubulin (colchicine site); assay: Inhibition of [3H]colchicine binding to tubulin; design: species or system bovine; conditions: for Percent Colchicine Binding Inhibition (CBI), 1 μM: 1 μM compound; for Percent Colchicine Binding Inhibition (CBI), 5 μM / % CBI 5 μM, (30° C.) / % CBI 5 μM, 37° C.: 5 μM compound; for Percent Colchicine Binding Inhibition (CBI), 50 μM / % CBI 50 μM, (30° C.) / % CBI 50 μM, 37° C.: 50 μM compound; for % CBI 5 μM, (30° C.) / % CBI 50 μM, (30° C.): 30° C. (values in parentheses)
Description: Assays to determine whether 15mix-17mix inhibited binding of [^3H]colchicine to tubulin at both 30° C. and 37° C. were performed. This was accomplished using methods described previously. Kang, G.-J.; Getahun, Z.; Muzaffar, A.; Brossi, A.; Hamel, E. J. Biol. Chem. 1990, 265, 10255; Verdier-Pinard, P.; Lai, J.-Y.; Yoo, H.-D.; Yu, J.; Marquez, B.; Nagle, D. G.; Nambu, M.; White, J. D.; Falck, J. R.; Gerwick, W. H.; Day, B. W.; Hamel, E. Mol. Pharmacol. 1998, 53, 62. Briefly, 5 μM [^3H]colchicine (2.3 TBq/mmol), drug (1, 5, 10, 50, or 250 μM), or vehicle (DMSO, 5% v/v) were incubated at 30° C. for 15 minutes or at 37° C. for 10 minutes with 1 μM tubulin in the presence of 1 M monosodium glutamate, 0.1 M glucose-1-phosphate, 1 mM MgCl2, 1 mM GTP, and 0.5 mg/mL bovine serum albumin. The solutions were filtered through two stacks of DEAE-cellulose filters and the radioactivity in the filtrate was determined by scintillation spectrometry. Each series of determinations included positive controls of 1, 5, and/or 50 μM curacin A.

[2] = test system: isolated bovine brain tubulin; assay: Inhibition of GTP/glutamate-induced tubulin polymerization (turbidimetric, 30° C.); assay type: biochemical; conditions: 5 μM compound
[3] = 96 h, Table II prints no unit, read-out: GI50 PC3 96 h
[4] = read-out: GI50 PC3 48 h, 48 h, Table II prints no unit
[5] = 96 h, Table II prints no unit, read-out: GI50 MDA 96 h
[6] = read-out: GI50 MDA 48 h, 48 h, Table II prints no unit
[7] = 96 h, Table II prints no unit, read-out: GI50 2008 96 h
[8] = read-out: GI50 2008 48 h, 48 h, Table II prints no unit
[9] = 96 h, read-out: GI50 PC3 (prostate) 96 h
[10] = read-out: GI50 PC3 (prostate) 48 h, 48 h
[11] = 96 h, read-out: GI50 MDA-MB231 (breast) 96 h
[12] = read-out: GI50 MDA-MB231 (breast) 48 h, 48 h
[13] = 96 h, read-out: GI50 2008 (ovarian) 96 h
[14] = read-out: GI50 2008 (ovarian) 48 h, 48 h

Structure (SMILES)	GI50 (PC-3 cells; [3])	GI50 (PC-3 cells; [4])	GI50 (MDA-MB231 cells; [5])	GI50 (MDA-MB231 cells; [6])	GI50 (2008 cells; [7])	GI50 (2008 cells; [8])	Percent Colchicine Binding Inhibition (CBI), 5 μM [1]	Percent Colchicine Binding Inhibition (CBI), 50 μM [1]	Percent Tubulin Polymerization Inhibition (TPI), 5 μM [2]	GI50 (PC-3 cells; [9])	GI50 (PC-3 cells; [10])	GI50 (MDA-MB231 cells; [11])	GI50 (MDA-MB231 cells; [12])	GI50 (2008 cells; [13])	GI50 (2008 cells; [14])	% CBI 5 μM, (30° C.) [1]	% CBI 5 μM, 37° C. [1]	% CBI 50 μM, (30° C.) [1]	% CBI 50 μM, 37° C. [1]	% TPI 5 μM [2]	also measured
COc1ccc(/C=C\CC/C=C/C=C(\C)CCC(O)c2ccccc2OC)c(OC)c1 (stereo not shown) [Compound 19AR5]	> 50 µM	> 50 µM	15.3 ± 9.8 µM	> 50 µM	24.2 ± 3.9 µM	30.8 ± 8.7 µM	−17.4 ± 7.9 %	−26.1 ± 11.5 %	34.2%	–	–	–	–	–	–	–	–	–	–	–	Percent Colchicine Binding Inhibition (CBI), 1 μM [1]: −3.4 ± 3.2%
COc1ccc(/C=C\CC/C=C/C=C(\C)CCC(O)c2cc(OC)ccc2OC)c(OC)c1 (stereo not shown) [Compound 19AR6]	> 50 µM	> 50 µM	18.3 ± 13.6 µM	39.3 ± 11.3 µM	32.9 ± 3.7 µM	35.2 ± 2.4 µM	−6.8 ± 13.1%	−22.8 ± 8.9 %	31.2%	–	–	–	–	–	–	–	–	–	–	–	Percent Colchicine Binding Inhibition (CBI), 1 μM [1]: 1.7 ± 13.9%
COc1cc(/C=C\CC/C=C/C=C(\C)CCC(O)c2ccco2)cc(OC)c1OC (stereo not shown) [Compound 19CR1]	7.73 ± 1.22 µM	7.99 ± 3.52 µM	0.79 ± 0.167 µM	0.288 ± 0.166 µM	2.53 ± 0.64 µM	2.72 ± 0.96 µM	30.3 ± 7.5 %	59.7 ± 1.6 %	94.4%	–	–	–	–	–	–	–	–	–	–	–	–
COc1cc(/C=C\CC/C=C/C=C(\C)CCC(O)c2cccs2)cc(OC)c1OC (stereo not shown) [Compound 19CR2]	1.22 ± 0.22 µM	0.875 ± 1.02 µM	1.28 ± 0.12 µM	0.083 ± 0.125 µM	0.235 ± 0.021 µM	0.38 ± 0.002 µM	30.2 ± 7.3 %	71.6 ± 2.8 %	>100%	–	–	–	–	–	–	–	–	–	–	–	–
COc1cc(/C=C\CC/C=C/C=C(\C)CCC(O)c2cc3ccccc3o2)cc(OC)c1OC (stereo not shown) [Compound 19CR3]	1.02 ± 0.38 µM	0.366 ± 0.157 µM	0.214 ± 0.051 µM	0.151 ± 0.051 µM	0.279 ± 0.03 µM	0.311 ± 0.063 µM	9.9 ± 3.0%	59.0 ± 7.5 %	>100%	–	–	–	–	–	–	–	–	–	–	–	–
COc1cc(/C=C\CC/C=C/C=C(\C)CCC(O)c2cc3ccccc3s2)cc(OC)c1OC (stereo not shown) [Compound 19CR4]	0.634 ± 0.397 µM	0.933 ± 1.25 µM	0.221 ± 0.033 µM	0.243 ± 0.046 µM	0.268 ± 0.046 µM	0.314 ± 0.025 µM	5.0 ± 7.4%	73.0 ± 2.4 %	>100%	–	–	–	–	–	–	–	–	–	–	–	–
COc1ccccc1C(O)CC/C(C)=C/C=C/CC/C=C\c1cc(OC)c(OC)c(OC)c1 (stereo not shown) [Compound 19CR5]	1.12 ± 0.04 µM	0.596 ± 1.25 µM	0.204 ± 0.046 µM	0.086 ± 0.146 µM	0.199 ± 0.036 µM	0.204 ± 0.112 µM	12.5 ± 8.1%	68.7 ± 1.1 %	74.6%	–	–	–	–	–	–	–	–	–	–	–	–
C=CC[C@@H](CC[C@@]1(C)C[C@H]1[C@H]1C[C@@H]1CC/C=C\[C@@H]1CSC([C@@H]2C[C@@H]2C)=N1)OC [JR DCCA]	–	–	–	–	–	–	–	–	–	> 50 µM	> 50 µM	> 50 µM	> 50 µM	> 50 µM	> 50 µM	(9 ± 5) %	−39 ± 7%	(−12 ± 9) %	−62 ± 5%	0%	–
C=CC[C@@H](CC/C(C)=C/C=C/CC/C=C\[C@@H]1COC(C(C)(C)C)=N1)OC [JRC1]	–	–	–	–	–	–	–	–	–	8.8 ± 0.8 µM	6.2 ± 1.3 µM	4.1 ± 1.1 µM	1.8 ± 0.3 µM	3.7 ± 1.5 µM	0.45 ± 0.5 µM	(14 ± 5) %	0 ± 7%	(80 ± 1) %	87 ± 1%	0%	–
C=CC[C@@H](CC/C(C)=C/C=C/CC/C=C\c1coc(C(C)(C)C)n1)OC [JRC2]	–	–	–	–	–	–	–	–	–	> 50 µM	> 50 µM	> 50 µM	36 ± 22 µM	> 50 µM	> 50 µM	(7 ± 5) %	0 ± 17%	(7 ± 6) %	−52 ± 14%	51%	–
C=CC[C@@H](CC/C(C)=C/C=C/CC/C=C\[C@@H]1CSC(C(C)(C)C)=N1)OC [JRC3]	–	–	–	–	–	–	–	–	–	0.061 ± 0.059 µM	0.13 ± 0.08 µM	0.27 ± 0.16 µM	0.2 ± 0.11 µM	0.18 ± 0.11 µM	0.22 ± 0.09 µM	(35 ± 4) %	−35 ± 15%	(63 ± 6) %	13 ± 12%	100%	–
C=CC[C@@H](CC/C(C)=C/C=C/CC/C=C\c1csc(C(C)(C)C)n1)OC [JRC4]	–	–	–	–	–	–	–	–	–	0.45 ± 0.09 µM	0.24 ± 0.07 µM	0.25 ± 0.02 µM	0.32 ± 0.2 µM	0.25 ± 0.05 µM	0.3 ± 0.17 µM	(38 ± 2) %	−21 ± 16%	(43 ± 19) %	5 ± 13%	100%	–
C=CCC(CCC(C)=CC=CCCC=CC1COC(C=Cc2ccccc2)=N1)OC (stereo not shown) [JRC5]	–	–	–	–	–	–	–	–	–	28 ± 1 µM	30 ± 6 µM	5.8 ± 3.6 µM	14 ± 3 µM	23 ± 2 µM	17 ± 3 µM	(9 ± 6) %	1 ± 12%	(−220 ± 16) %	−89 ± 7%	29%	–
C=CC[C@@H](CC[C@@]1(C)C[C@H]1[C@H]1C[C@@H]1CC/C=C\[C@@H]1COC([C@@H]2C[C@@H]2C)=N1)OC [JRCPOX]	–	–	–	–	–	–	–	–	–	24 ± 1 µM	49 ± 1 µM	24 µM	18 ± 4 µM	23 ± 1 µM	18 ± 4 µM	(−142 ± 59) %	−8 ± 11%	(−205 ± 17) %	−74 ± 19%	83%	–
